Where a SMILES comes first, the peptide text is derived from it. Bridges are numbered along the chain shown (N, C = ends). [ ]: non-standard residue; d: D form. R8 = C=CCCCCCC[C@@](C)(N)C(=O)O; S5 = C=CCCC[C@](C)(N)C(=O)O
Legend:
MDMX = biological target: T1, MDMX (Homo sapiens, UniProt O15151); experiment: Competitive fluorescence polarization assay for MDMX; assay type: binding; settings: competitive FP assay; for IC50: read-out: IC50 (MDMX); for Ki: read-out: Ki (MDMX)
T1 sequence (O15151 1-125): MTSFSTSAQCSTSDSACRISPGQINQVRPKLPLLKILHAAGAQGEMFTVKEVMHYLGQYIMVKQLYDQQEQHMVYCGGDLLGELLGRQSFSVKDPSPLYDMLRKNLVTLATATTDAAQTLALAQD

MDM2 = MDM2 (Homo sapiens, UniProt Q00987); experiment: Competitive fluorescence polarization assay for MDM2; assay type: binding; settings: competitive FP assay, MDM2; for IC50: read-out: IC50 (MDM2); for Ki: read-out: Ki (MDM2)
SJSA-1 cells = experiment: Cell lysis by peptidomimetic macrocycles (LDH release); assay type: cell-based; settings: 1 h at 37C

MDM2, sequence (Q00987 1-125): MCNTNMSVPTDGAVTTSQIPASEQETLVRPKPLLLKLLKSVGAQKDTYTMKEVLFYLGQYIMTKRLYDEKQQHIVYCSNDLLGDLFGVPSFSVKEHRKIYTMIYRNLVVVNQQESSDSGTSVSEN

| Compound | IC50 (MDMX) [nM] | Ki (MDMX) [nM] | IC50 (MDM2) [nM] | Ki (MDM2) [nM] | 6.25 uM % Lysed cells (1 h LDH) (SJSA-1 cells) [%] | 25 uM % Lysed cells (1 h LDH) (SJSA-1 cells) [%] | 50 uM % Lysed cells (1 h LDH) (SJSA-1 cells) [%] |
| --- | --- | --- | --- | --- | --- | --- | --- |
| CC(=O)N[C@@H](CC(C)C)C(=O)N[C@H](C(=O)N[C@@H](Cc1ccccc1)C(=O)N[C@]1(C)CCCCCCC=CCCC[C@@](C)(C(=O)N[C@@H](CO)C(=O)N[C@@H](C)C(=O)N[C@@H](C)C(N)=O)NC(=O)[C@H](C2CCCC2)NC(=O)[C@H](CCC(N)=O)NC(=O)[C@H](C)NC(=O)[C@H](Cc2c[nH]c3ccccc23)NC(=O)[C@H](Cc2ccc(O)cc2)NC(=O)[C@H](CCC(=O)O)NC1=O)[C@@H](C)O (single isomer, unassigned) [compound 150] | 100 to 1000 | 10 to 100 |  |  | −1 | 0 | 2 |
| CC(=O)N[C@@H](CC(C)C)C(=O)N[C@H](C(=O)N[C@@H](Cc1ccccc1)C(=O)N[C@]1(C)CCCCCCC=CCCC[C@@](C)(C(=O)N[C@@H](C)C(=O)N[C@@H](Cc2c[nH]cn2)C(=O)N[C@@H](Cc2ccccc2)C(=O)N[C@@H](C)C(N)=O)NC(=O)[C@H](CC(C)C)NC(=O)[C@H](CCC(N)=O)NC(=O)[C@H](C(C)C)NC(=O)[C@H](Cc2c[nH]c3ccccc23)NC(=O)[C@H](Cc2c[nH]cn2)NC(=O)[C@H](C)NC1=O)[C@@H](C)O [compound 190] (Ac-LTF[R8]AHWVQL[S5]AHFA-NH2; staple 4-11) |  |  |  |  | −1 | 0 | 1 |
| CCCCCC(=O)N[C@@H](CC(C)C)C(=O)N[C@H](C(=O)N[C@@H](Cc1ccccc1)C(=O)N[C@]1(C)CCCCCCC=CCCC[C@@](C)(C(=O)N[C@@H](CO)C(=O)N[C@@H](C)C(=O)N[C@@H](C)C(N)=O)NC(=O)[C@H](CCC(C)C)NC(=O)[C@H](CCC(N)=O)NC(=O)[C@H](C)NC(=O)[C@H](Cc2c[nH]c3ccccc23)NC(=O)[C@H](Cc2ccc(O)cc2)NC(=O)[C@H](CCC(=O)O)NC1=O)[C@@H](C)O [compound 280] | 100 to 1000 | 10 to 100 |  |  | 5 | 6 | 18 |
| CCCC[C@H](NC(=O)[C@H](C)NC(=O)[C@H](C)NC(=O)[C@]1(C)CCCC=CCCCCCC[C@@](C)(NC(=O)[C@H](Cc2ccccc2)NC(=O)[C@@H](NC(=O)[C@H](CC(C)C)NC(C)=O)[C@@H](C)O)C(=O)N[C@@H](C)C(=O)N[C@@H](Cc2ccc(O)cc2)C(=O)N[C@@H](Cc2c[nH]c3ccccc23)C(=O)N[C@@H](Cc2cc(=O)oc3cc(OC)c(OC)cc23)C(=O)N[C@@H](CCC(N)=O)C(=O)N[C@@H](CC(C)C)C(=O)N1)C(=O)N[C@@H](C)C(N)=O [compound 415] |  |  |  |  | 4 | 2 | 2 |

Now from value to compound, other results behind:

| IC50 (MDMX) [nM] | Ki (MDMX) [nM] | IC50 (MDM2) [nM] | Ki (MDM2) [nM] | Compound | 6.25 uM % Lysed cells (1 h LDH) (SJSA-1 cells) [%] | 25 uM % Lysed cells (1 h LDH) (SJSA-1 cells) [%] | 50 uM % Lysed cells (1 h LDH) (SJSA-1 cells) [%] |
| --- | --- | --- | --- | --- | --- | --- | --- |
| 100 to 1000 | 10 to 100 | 10 to 100 | < 10 | CCCC[C@H](NC(=O)[C@H](C)NC(=O)[C@H](C)NC(=O)[C@]1(C)CCCC=CCCCCCC[C@@](C)(NC(=O)[C@H](Cc2ccccc2)NC(=O)[C@@H](NC(=O)[C@H](CC(C)C)NC(C)=O)[C@@H](C)O)C(=O)N[C@@H](C)C(=O)N[C@@H](Cc2ccc(O)cc2)C(=O)N[C@@H](Cc2c[nH]c3ccccc23)C(=O)N[C@@H](C)C(=O)N[C@@H](CCC(N)=O)C(=O)N[C@@H](CC(C)C)C(=O)N1)C(=O)N[C@H](C)C(N)=O (single isomer, unassigned) [compound 75] | −1 | 1 | 1 |
| 10 to 100 | 10 to 100 | < 10 | < 10 | CC(=O)N[C@@H](CC(C)C)C(=O)N[C@H](C(=O)N[C@@H](Cc1ccccc1)C(=O)N[C@]1(C)CCCCCCC=CCCC[C@@](C)(C(=O)N[C@@H](CO)C(=O)N[C@@H](C)C(=O)N[C@@H](C)C(N)=O)NC(=O)[C@H](CC(C)C)NC(=O)[C@H](CCC(N)=O)NC(=O)[C@H](C)NC(=O)[C@H](Cc2c[nH]c3ccccc23)NC(=O)[C@H](Cc2ccc(C(=O)O)cc2)NC(=O)[C@H](C)NC1=O)[C@@H](C)O (single isomer, unassigned) [compound 169] | 2 | 3 | 7 |
| 100 to 1000 | 10 to 100 | < 10 | < 10 | CC[C@H](C)[C@H](NC(=O)[C@H](C)NC(=O)[C@H](C)NC(=O)[C@]1(C)CCCC=CCCCCCC[C@@](C)(NC(=O)[C@H](Cc2ccccc2)NC(=O)[C@@H](NC(=O)[C@H](CC(C)C)NC(C)=O)[C@@H](C)O)C(=O)N[C@@H](C)C(=O)N[C@@H](Cc2ccc(C(=O)O)cc2)C(=O)N[C@@H](Cc2c[nH]c3ccccc23)C(=O)N[C@@H](C)C(=O)N[C@@H](CCC(N)=O)C(=O)N[C@@H](CC(C)C)C(=O)N1)C(=O)N[C@H](C)C(N)=O (single isomer, unassigned) [compound 182] | 0 | 3 | 6 |
| 100 to 1000 | 10 to 100 | < 10 | < 10 | CC[C@H](C)[C@H](NC(=O)[C@H](C)NC(=O)[C@H](C)NC(=O)[C@]1(C)CCCC=CCCCCCC[C@@](C)(NC(=O)[C@H](Cc2ccccc2)NC(=O)[C@@H](NC(=O)[C@H](CC(C)C)NC(C)=O)[C@@H](C)O)C(=O)N[C@@H](CCC(=O)O)C(=O)N[C@@H](Cc2ccc(O)cc2)C(=O)N[C@@H](Cc2c[nH]c3ccccc23)C(=O)N[C@@H](C)C(=O)N[C@@H](CCC(N)=O)C(=O)N[C@@H](CC(C)C)C(=O)N1)C(=O)N[C@H](C)C(N)=O (single isomer, unassigned) [compound 217] | 2 | 1 | 2 |
| 10 to 100 | 10 to 100 |  |  | CC(C)CC[C@@H]1NC(=O)[C@H](CCC(N)=O)NC(=O)[C@H](C)NC(=O)[C@H](Cc2c[nH]c3ccccc23)NC(=O)[C@H](Cc2ccc(O)cc2)NC(=O)[C@H](CCC(=O)O)NC(=O)[C@](C)(NC(=O)[C@H](Cc2ccccc2)NC(=O)[C@@H](NC(=O)[C@H](CC(C)C)NC(=O)CN(C)C)[C@@H](C)O)CCCCCCC=CCCC[C@@](C)(C(=O)N[C@@H](CO)C(=O)N[C@@H](C)C(=O)N[C@@H](C)C(N)=O)NC1=O [compound 279] | 6 | 5 | 6 |
| 100 to 1000 | 10 to 100 |  |  | CC(C)CC[C@@H]1NC(=O)[C@H](CCC(N)=O)NC(=O)[C@H](C)NC(=O)[C@H](Cc2c[nH]c3ccccc23)NC(=O)[C@H](Cc2ccc(O)cc2)NC(=O)[C@H](CCC(=O)O)NC(=O)[C@](C)(NC(=O)[C@H](Cc2ccccc2)NC(=O)[C@@H](NC(=O)[C@H](CC(C)C)NC(=O)C(C)(C)C)[C@@H](C)O)CCCCCCC=CCCC[C@@](C)(C(=O)N[C@@H](CO)C(=O)N[C@@H](C)C(=O)N[C@@H](C)C(N)=O)NC1=O [compound 284] | 5 | 5 | 6 |
